Experiment: toxicity in mice: body weight and observations after IP administration
Format: in vivo
Conditions: for body weight / body weight change (% wt/wt): male mice
Method in brief: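 Mice (female where stated) received the test compound intraperitoneally on day 1, dissolved in 20% hydroxypropylcyclodextrane at an administration volume of 10 ml/kg. Toxicity was assessed from body weight, body weight change (% wt/wt) and observations of the animals after administration.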

For `CC(C)c1ccc(-c2cn3nc(N4CCC(CN5CCN(CCO)CC5)CC4)sc3n2)cc1` [Compound E266, 2-(4-{1-[6-(4-isopropyl-phenyl)-imidazo[2,1-b][1,3,4]thiadiazol-2-yl]-piperidin-4-ylmethyl}-piperazin-1-yl)-ethanol], the body weight (100 mg/kg IP, day 1) was 37.4 g, the “body weight change (% wt/wt)” value (100 mg/kg IP, day 1) was 0% and the body weight (100 mg/kg IP, day 2) was 38.2 g. The “body weight change (% wt/wt)” value (100 mg/kg IP, day 2) was 2.1%, the body weight (100 mg/kg IP, day 3) was 38 g and the “body weight change (% wt/wt)” value (100 mg/kg IP, day 3) was 1.6%. For the same compound, the body weight (100 mg/kg IP, day 4) was 37.3 g, the “body weight change (% wt/wt)” value (100 mg/kg IP, day 4) was −0.3% and the body weight (100 mg/kg IP, day 5) was 37.9 g. For the same compound, the “body weight change (% wt/wt)” value (100 mg/kg IP, day 5) was 1.3%, the body weight (100 mg/kg IP, day 6) was 37.5 g and the “body weight change (% wt/wt)” value (100 mg/kg IP, day 6) was 0.3%. For the same compound, the body weight (100 mg/kg IP, day 7) was 37.4 g, the “body weight change (% wt/wt)” value (100 mg/kg IP, day 7) was 0.0% and the body weight (100 mg/kg IP, day 8) was 37.5 g. The “body weight change (% wt/wt)” value (100 mg/kg IP, day 8) was 0.3%, the body weight (100 mg/kg IP, day 9) was 36.8 g and the “body weight change (% wt/wt)” value (100 mg/kg IP, day 9) was −1.6%. For the same compound, the body weight (100 mg/kg IP, day 10) was 37.2 g, the “body weight change (% wt/wt)” value (100 mg/kg IP, day 10) was −0.5% and the body weight (100 mg/kg IP, day 11) was 37.3 g. For the same compound, the “body weight change (% wt/wt)” value (100 mg/kg IP, day 11) was −0.3%, the body weight (100 mg/kg IP, day 12) was 37.3 g and the “body weight change (% wt/wt)” value (100 mg/kg IP, day 12) was −0.3%. The body weight (100 mg/kg IP, day 13) was 37.7 g, the “body weight change (% wt/wt)” value (100 mg/kg IP, day 13) was 0.8% and the body weight (100 mg/kg IP, day 14) was 38.1 g. The “body weight change (% wt/wt)” value (100 mg/kg IP, day 14) was 1.9%, the body weight (100 mg/kg IP, day 15) was 36.6 g and the “body weight change (% wt/wt)” value (100 mg/kg IP, day 15) was −2.1%. For the same compound, the body weight (200 mg/kg IP, day 1) was 37.8 g, the “body weight change (% wt/wt)” value (200 mg/kg IP, day 1) was 0% and the body weight (200 mg/kg IP, day 2) was 38.1 g. For the same compound, the “body weight change (% wt/wt)” value (200 mg/kg IP, day 2) was 0.8%, the body weight (200 mg/kg IP, day 3) was 38.2 g and the “body weight change (% wt/wt)” value (200 mg/kg IP, day 3) was 1.1%. For the same compound, the body weight (200 mg/kg IP, day 4) was 38.3 g, the “body weight change (% wt/wt)” value (200 mg/kg IP, day 4) was 1.3% and the body weight (200 mg/kg IP, day 5) was 37.6 g. The “body weight change (% wt/wt)” value (200 mg/kg IP, day 5) was −0.5%, the body weight (200 mg/kg IP, day 6) was 38 g and the “body weight change (% wt/wt)” value (200 mg/kg IP, day 6) was 0.5%. For the same compound, the body weight (200 mg/kg IP, day 7) was 39.2 g, the “body weight change (% wt/wt)” value (200 mg/kg IP, day 7) was 3.7% and the body weight (200 mg/kg IP, day 8) was 39.7 g. The “body weight change (% wt/wt)” value (200 mg/kg IP, day 8) was 5.0%, the body weight (200 mg/kg IP, day 9) was 38 g and the “body weight change (% wt/wt)” value (200 mg/kg IP, day 9) was 0.5%. For the same compound, the body weight (200 mg/kg IP, day 10) was 37.9 g, the “body weight change (% wt/wt)” value (200 mg/kg IP, day 10) was 0.3% and the body weight (200 mg/kg IP, day 11) was 38.2 g. The “body weight change (% wt/wt)” value (200 mg/kg IP, day 11) was 1.1%, the body weight (200 mg/kg IP, day 12) was 38.7 g and the “body weight change (% wt/wt)” value (200 mg/kg IP, day 12) was 2.4%. The body weight (200 mg/kg IP, day 13) was 37.9 g, the “body weight change (% wt/wt)” value (200 mg/kg IP, day 13) was 0.3% and the body weight (200 mg/kg IP, day 14) was 38.8 g. The “body weight change (% wt/wt)” value (200 mg/kg IP, day 14) was 2.6%, the body weight (200 mg/kg IP, day 15) was 37.6 g and the “body weight change (% wt/wt)” value (200 mg/kg IP, day 15) was −0.5%. The body weight (400 mg/kg IP, day 1) was 40.3 g, the “body weight change (% wt/wt)” value (400 mg/kg IP, day 1) was 0% and the body weight (400 mg/kg IP, day 2) was 40 g. For the same compound, the “body weight change (% wt/wt)” value (400 mg/kg IP, day 2) was “−.07%”, the body weight (400 mg/kg IP, day 3) was 41.3 g and the “body weight change (% wt/wt)” value (400 mg/kg IP, day 3) was 2.5%. The body weight (400 mg/kg IP, day 4) was 40.8 g, the “body weight change (% wt/wt)” value (400 mg/kg IP, day 4) was 1.2% and the body weight (400 mg/kg IP, day 5) was 39.6 g. The “body weight change (% wt/wt)” value (400 mg/kg IP, day 5) was −1.7%, the body weight (400 mg/kg IP, day 6) was 40.4 g and the “body weight change (% wt/wt)” value (400 mg/kg IP, day 6) was 0.2%. The body weight (400 mg/kg IP, day 7) was 40.5 g, the “body weight change (% wt/wt)” value (400 mg/kg IP, day 7) was 0.5% and the body weight (400 mg/kg IP, day 8) was 40.7 g. For the same compound, the “body weight change (% wt/wt)” value (400 mg/kg IP, day 8) was 1.0%, the body weight (400 mg/kg IP, day 9) was 39.4 g and the “body weight change (% wt/wt)” value (400 mg/kg IP, day 9) was −2.2%. For the same compound, the body weight (400 mg/kg IP, day 10) was 40 g, the “body weight change (% wt/wt)” value (400 mg/kg IP, day 10) was −0.7% and the body weight (400 mg/kg IP, day 11) was 39.7 g. The “body weight change (% wt/wt)” value (400 mg/kg IP, day 11) was −1.5%, the body weight (400 mg/kg IP, day 12) was 40.1 g and the “body weight change (% wt/wt)” value (400 mg/kg IP, day 12) was −0.5%. The body weight (400 mg/kg IP, day 13) was 40.1 g, the “body weight change (% wt/wt)” value (400 mg/kg IP, day 13) was −0.5% and the body weight (400 mg/kg IP, day 14) was 40.2 g. For the same compound, the “body weight change (% wt/wt)” value (400 mg/kg IP, day 14) was −0.2%, the body weight (400 mg/kg IP, day 15) was 39.3 g and the “body weight change (% wt/wt)” value (400 mg/kg IP, day 15) was −2.5%. For the same compound, the observations after administration (mice, IP administration) was “a decrease in locomotor and piloererection right after administration were observed, these were reversible and full recovery was observed”.

From patent publication US12084459B2, “2-(4-{1-[6-(4-isopropyl-phenyl)-imidazo[2,1-b][1,3,4]thiadiazol-2-yl]-piperidin-4-ylmethyl}-piperazin-1-yl)-ethanol and use thereof” (Urifer Ltd., priority 2020, dated 2024)
